Patent US10501752B2, “Herbicide tolerant cotton event pDAB4468.19.10.3” (Dow AgroSciences LLC, priority 2012, dated 2019)

What was measured:
Assay type in all cases: in vivo, Gossypium hirsutum
[1] = test system: cotton event pDAB4468.19.10.3; assay: Tolerance to triclopyr and fluroxypyr in greenhouse trials (percent visual injury); conditions: for % Injury: cotton event, 3 leaf stage, greenhouse
Method: (§1) The tolerance of cotton event pDAB4468.19.10.3 to post-emergence applications of the pyridyloxyacetic acid herbicides, triclopyr and fluroxypyr, was studied in greenhouse trials. Herbicide tolerance was assessed following a single post-emergence application of triclopyr or fluroxypyr. Seed from cotton event pDAB4468.19.10.3 were heat treated in a water bath at 82.5° C. for 1 minute and then planted in metro mix 360 media and grown in a greenhouse. The temperatures in the greenhouse averaged 27° C. and the photoperiod was set at 16 hours of light and eight hours of dark, with maximum light intensity. Plants were allowed to grow until the 3 leaf stage of development and a non-randomized study was conducted with three replications and three treatments for each herbicide. Plants were sprayed in a track sprayer calibrated to deliver 187 L/ha of the commercial formulations of triclopyr (Garlon 4TM, Dow AgroSciences, Indianapolis, Ind.) and fluroxypyr ([…], Dow AgroSciences, Indianapolis, Ind.). A non-transformed Coker 310 variety of cotton was used as a negative control.

[2] = test system: cotton event pDAB4468.19.10.3 (aad-12); assay: Tolerance to butanoic acids of triclopyr and fluroxypyr in greenhouse trials (% injury); conditions: 2-3 leaf stage
Method: (§2) Herbicide tolerance was assessed following a single post-emergence application of the two molecules. Seed from cotton event pDAB4468.19.10.3 were heat treated in a water bath at 82.5° C. for 1 minute and then planted in metro mix 360 media and grown in a greenhouse. The temperatures in the greenhouse averaged 27° C. and the photoperiod was set at 16 hours of light and eight hours of dark, with maximum light intensity. Plants were allowed to grow until the 2-3 leaf stage of development and a non-randomized study was conducted with four replications and three treatments for each herbicide. […] In addition, a crop oil concentrate was added to a final concentration of 1.25%. Plants were sprayed in a track sprayer calibrated to deliver 187 L/ha of the formulated technical material. A non-transformed Coker 310 variety of cotton was used as a negative control.

[3] = test system: non-transformed Coker 310 variety of cotton (WT); assay: Butanoic acids of triclopyr and fluroxypyr greenhouse trials, negative control plants (% injury); conditions: 2-3 leaf stage
Method: as §2

[4] = test system: non-transformed Coker 310 variety of cotton; assay: Triclopyr and fluroxypyr greenhouse trials, negative control plants (percent visual injury); conditions: 3 leaf stage
Method: as §1

Nc1c(Cl)c(F)nc(OCC(=O)O)c1Cl [Fluroxypyr, fluroxypyr]
% Injury ([1]; 70 g ae/ha, 3 DAA): 0.5 e %
% Injury ([1]; 70 g ae/ha, 11 DAA): 2.3 b %
% Injury ([1]; 140 g ae/ha, 3 DAA): 0.5 e %
% Injury ([1]; 140 g ae/ha, 11 DAA): 2.5 b %
% Injury ([1]; 280 g ae/ha, 3 DAA): 6.5 d %
% Injury ([1]; 280 g ae/ha, 11 DAA): 6.3 a %
herbicide level to which the event provides tolerance ([1]; by 3 DAA): up to 280 g ae/ha
% Injury ([2]; 140 g ai/ha, 1 DAA): 21.5a %
% Injury ([2]; 140 g ai/ha, 3 DAA): 8.8c %
% Injury ([2]; 140 g ai/ha, 6 DAA): 7.8b %
% Injury ([2]; 140 g ai/ha, 6 HAA): 19a %
% Injury ([2]; 140 g ai/ha, 14 DAA): 21.3ab %
% Injury ([2]; 280 g ai/ha, 1 DAA): 19.8a %
% Injury ([2]; 280 g ai/ha, 3 DAA): 15.3b %
% Injury ([2]; 280 g ai/ha, 6 DAA): 11.5a %
% Injury ([2]; 280 g ai/ha, 6 HAA): 14a %
% Injury ([2]; 280 g ai/ha, 14 DAA): 17.5b %
% Injury ([2]; 560 g ai/ha, 1 DAA): 21.5a %
% Injury ([2]; 560 g ai/ha, 3 DAA): 21.3a %
% Injury ([2]; 560 g ai/ha, 6 DAA): 14.3a %
% Injury ([2]; 560 g ai/ha, 6 HAA): 17a %
% Injury ([2]; 560 g ai/ha, 14 DAA): 25a %
% Injury ([3]; 140 g ai/ha, 1 DAA): 24.3a %
% Injury ([3]; 140 g ai/ha, 3 DAA): 32.5bc %
% Injury ([3]; 140 g ai/ha, 6 DAA): 38.8a %
% Injury ([3]; 140 g ai/ha, 6 HAA): 23.8a %
% Injury ([3]; 140 g ai/ha, 14 DAA): 60ab %
% Injury ([3]; 280 g ai/ha, 1 DAA): 25a %
% Injury ([3]; 280 g ai/ha, 3 DAA): 37.5ab %
% Injury ([3]; 280 g ai/ha, 6 DAA): 38.8a %
% Injury ([3]; 280 g ai/ha, 6 HAA): 22.5ab %
% Injury ([3]; 280 g ai/ha, 14 DAA): 65ab %
% Injury ([3]; 560 g ai/ha, 1 DAA): 23.5a %
% Injury ([3]; 560 g ai/ha, 3 DAA): 38.8a %
% Injury ([3]; 560 g ai/ha, 6 DAA): 41.3a %
% Injury ([3]; 560 g ai/ha, 6 HAA): 22.5ab %
% Injury ([3]; 560 g ai/ha, 14 DAA): 67.5a %
% Injury ([4]; 70 g ae/ha, 3 DAA): 11.3 c %
% Injury ([4]; 70 g ae/ha, 11 DAA): 43.8 ab %
% Injury ([4]; 140 g ae/ha, 3 DAA): 27.3 b %
% Injury ([4]; 140 g ae/ha, 11 DAA): 36.3 b %
% Injury ([4]; 280 g ae/ha, 3 DAA): 33.3 a %
% Injury ([4]; 280 g ae/ha, 11 DAA): 43.8 ab %

Nc1c(Cl)c(F)nc(OCCCC(=O)O)c1Cl [Fluroxypyr-b, fluroxypyr-B]
% Injury ([2]; 140 g ai/ha, 1 DAA): 3b %
% Injury ([2]; 140 g ai/ha, 3 DAA): 2d %
% Injury ([2]; 140 g ai/ha, 6 DAA): 2c %
% Injury ([2]; 140 g ai/ha, 6 HAA): 6.5b %
% Injury ([2]; 140 g ai/ha, 14 DAA): 0c %
% Injury ([2]; 280 g ai/ha, 1 DAA): 2b %
% Injury ([2]; 280 g ai/ha, 3 DAA): 2.3d %
% Injury ([2]; 280 g ai/ha, 6 DAA): 2.8c %
% Injury ([2]; 280 g ai/ha, 6 HAA): 7.8b %
% Injury ([2]; 280 g ai/ha, 14 DAA): 0c %
% Injury ([2]; 560 g ai/ha, 1 DAA): 3.5b %
% Injury ([2]; 560 g ai/ha, 3 DAA): 2d %
% Injury ([2]; 560 g ai/ha, 6 DAA): 2.8c %
% Injury ([2]; 560 g ai/ha, 6 HAA): 8b %
% Injury ([2]; 560 g ai/ha, 14 DAA): 2c %
% Injury ([3]; 140 g ai/ha, 1 DAA): 21.8a %
% Injury ([3]; 140 g ai/ha, 3 DAA): 32.5bc %
% Injury ([3]; 140 g ai/ha, 6 DAA): 37.5a %
% Injury ([3]; 140 g ai/ha, 6 HAA): 17.8b %
% Injury ([3]; 140 g ai/ha, 14 DAA): 56.3b %
% Injury ([3]; 280 g ai/ha, 1 DAA): 24.3a %
% Injury ([3]; 280 g ai/ha, 3 DAA): 33.8bc %
% Injury ([3]; 280 g ai/ha, 6 DAA): 41.3a %
% Injury ([3]; 280 g ai/ha, 6 HAA): 21.3ab %
% Injury ([3]; 280 g ai/ha, 14 DAA): 62.5ab %
% Injury ([3]; 560 g ai/ha, 1 DAA): 22.3a %
% Injury ([3]; 560 g ai/ha, 3 DAA): 31.3c %
% Injury ([3]; 560 g ai/ha, 6 DAA): 41.3a %
% Injury ([3]; 560 g ai/ha, 6 HAA): 20ab %
% Injury ([3]; 560 g ai/ha, 14 DAA): 61.3ab %

O=C(O)COc1nc(Cl)c(Cl)cc1Cl [Triclopyr, triclopyr]
% Injury ([1]; 140 g ae/ha, 3 DAA): 13.0 c %
% Injury ([1]; 140 g ae/ha, 11 DAA): 3.5 b %
% Injury ([1]; 280 g ae/ha, 3 DAA): 16.5 b %
% Injury ([1]; 280 g ae/ha, 11 DAA): 3.3 b %
% Injury ([1]; 560 g ae/ha, 3 DAA): 19.5 a %
% Injury ([1]; 560 g ae/ha, 11 DAA): 3.3 b %
% Injury ([2]; 140 g ai/ha, 1 DAA): 8.8a %
% Injury ([2]; 140 g ai/ha, 3 DAA): 2a %
% Injury ([2]; 140 g ai/ha, 6 DAA): 2.8a %
% Injury ([2]; 140 g ai/ha, 6 HAA): 19.5a %
% Injury ([2]; 140 g ai/ha, 14 DAA): 0a %
% Injury ([2]; 280 g ai/ha, 1 DAA): 8a %
% Injury ([2]; 280 g ai/ha, 3 DAA): 1.8a %
% Injury ([2]; 280 g ai/ha, 6 DAA): 0.5a %
% Injury ([2]; 280 g ai/ha, 6 HAA): 15.8a %
% Injury ([2]; 280 g ai/ha, 14 DAA): 0a %
% Injury ([2]; 560 g ai/ha, 1 DAA): 9.5a %
% Injury ([2]; 560 g ai/ha, 3 DAA): 3.5a %
% Injury ([2]; 560 g ai/ha, 6 DAA): 3.5a %
% Injury ([2]; 560 g ai/ha, 6 HAA): 17.3a %
% Injury ([2]; 560 g ai/ha, 14 DAA): 0a %
% Injury ([3]; 140 g ai/ha, 1 DAA): 24.3a %
% Injury ([3]; 140 g ai/ha, 3 DAA): 30a %
% Injury ([3]; 140 g ai/ha, 6 DAA): 33.8a %
% Injury ([3]; 140 g ai/ha, 6 HAA): 20.8a %
% Injury ([3]; 140 g ai/ha, 14 DAA): 56.3ab %
% Injury ([3]; 280 g ai/ha, 1 DAA): 23a %
% Injury ([3]; 280 g ai/ha, 3 DAA): 32.5a %
% Injury ([3]; 280 g ai/ha, 6 DAA): 33.8a %
% Injury ([3]; 280 g ai/ha, 6 HAA): 20.3a %
% Injury ([3]; 280 g ai/ha, 14 DAA): 60ab %
% Injury ([3]; 560 g ai/ha, 1 DAA): 24.5a %
% Injury ([3]; 560 g ai/ha, 3 DAA): 32.5a %
% Injury ([3]; 560 g ai/ha, 6 DAA): 35a %
% Injury ([3]; 560 g ai/ha, 6 HAA): 21.8a %
% Injury ([3]; 560 g ai/ha, 14 DAA): 67.5a %
% Injury ([4]; 140 g ae/ha, 3 DAA): 33.8 a %
% Injury ([4]; 140 g ae/ha, 11 DAA): 36.3 b %
% Injury ([4]; 280 g ae/ha, 3 DAA): 33.8 a %
% Injury ([4]; 280 g ae/ha, 11 DAA): 40.0 ab %
% Injury ([4]; 560 g ae/ha, 3 DAA): 36.3 a %
% Injury ([4]; 560 g ae/ha, 11 DAA): 48.8 a %

O=C(O)CCCOc1nc(Cl)c(Cl)cc1Cl [Triclopyr-b, triclopyr-B]
% Injury ([2]; 140 g ai/ha, 1 DAA): 0.5b %
% Injury ([2]; 140 g ai/ha, 3 DAA): 1a %
% Injury ([2]; 140 g ai/ha, 6 DAA): 1.5a %
% Injury ([2]; 140 g ai/ha, 6 HAA): 3.8c %
% Injury ([2]; 140 g ai/ha, 14 DAA): 0a %
% Injury ([2]; 280 g ai/ha, 1 DAA): 2b %
% Injury ([2]; 280 g ai/ha, 3 DAA): 2a %
% Injury ([2]; 280 g ai/ha, 6 DAA): 2.8a %
% Injury ([2]; 280 g ai/ha, 6 HAA): 5.3c %
% Injury ([2]; 280 g ai/ha, 14 DAA): 0a %
% Injury ([2]; 560 g ai/ha, 1 DAA): 2.8b %
% Injury ([2]; 560 g ai/ha, 3 DAA): 3.5a %
% Injury ([2]; 560 g ai/ha, 6 DAA): 4.3a %
% Injury ([2]; 560 g ai/ha, 6 HAA): 8.5b %
% Injury ([2]; 560 g ai/ha, 14 DAA): 0a %
% Injury ([3]; 140 g ai/ha, 1 DAA): 20.5a %
% Injury ([3]; 140 g ai/ha, 3 DAA): 26.7a %
% Injury ([3]; 140 g ai/ha, 6 DAA): 25b %
% Injury ([3]; 140 g ai/ha, 6 HAA): 12.8b %
% Injury ([3]; 140 g ai/ha, 14 DAA): 47.5b %
% Injury ([3]; 280 g ai/ha, 1 DAA): 21.5a %
% Injury ([3]; 280 g ai/ha, 3 DAA): 27.5a %
% Injury ([3]; 280 g ai/ha, 6 DAA): 33.8a %
% Injury ([3]; 280 g ai/ha, 6 HAA): 7.3b %
% Injury ([3]; 280 g ai/ha, 14 DAA): 57.5ab %
% Injury ([3]; 560 g ai/ha, 1 DAA): 18.8a %
% Injury ([3]; 560 g ai/ha, 3 DAA): 33.8a %
% Injury ([3]; 560 g ai/ha, 6 DAA): 35a %
% Injury ([3]; 560 g ai/ha, 6 HAA): 8.3b %
% Injury ([3]; 560 g ai/ha, 14 DAA): 51.3ab %
